Test results: ChEMBL document CHEMBL4507284, “Data for DCP probe BI-1230” (2021)
Active and inactive are the calls of the source.

Experiments:
[1] = biological target: NS3 protease (Hepacivirus C, UniProt C1KIQ2); assay: Enzymatic assay; parameters: species or system Hepacivirus hominis
[2] = tested on: Tyrosine-protein kinase ABL1 (Homo sapiens), P00519 [T315I]; settings: Compound concentration 1000.0 nM
[3] = biological target: Tyrosine-protein kinase ABL1 (Homo sapiens) (UniProt P00519); settings: Compound concentration 1000.0 nM
[4] = biological target: Activin receptor type-2A (Homo sapiens) (UniProt P27037); settings: Compound concentration 1000.0 nM
Chain of Activin receptor type-2A (Homo sapiens) (P27037 whole entry): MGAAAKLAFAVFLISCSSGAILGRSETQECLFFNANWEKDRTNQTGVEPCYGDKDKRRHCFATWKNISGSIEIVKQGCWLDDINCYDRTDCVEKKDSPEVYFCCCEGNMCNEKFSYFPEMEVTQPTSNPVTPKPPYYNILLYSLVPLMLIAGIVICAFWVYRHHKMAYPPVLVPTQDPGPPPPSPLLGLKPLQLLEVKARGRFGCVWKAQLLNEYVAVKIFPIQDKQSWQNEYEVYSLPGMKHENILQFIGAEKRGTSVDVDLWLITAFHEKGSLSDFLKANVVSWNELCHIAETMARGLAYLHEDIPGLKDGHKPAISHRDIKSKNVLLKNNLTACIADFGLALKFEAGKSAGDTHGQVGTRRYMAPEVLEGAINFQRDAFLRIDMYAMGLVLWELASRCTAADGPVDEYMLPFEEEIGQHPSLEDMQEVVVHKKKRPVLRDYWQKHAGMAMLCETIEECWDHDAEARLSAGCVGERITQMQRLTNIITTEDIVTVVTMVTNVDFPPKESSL

[5] = tested on: ALK tyrosine kinase receptor (Homo sapiens), Q9UM73 [C1156Y]; settings: Compound concentration 1000.0 nM
[6] = tested on: ALK tyrosine kinase receptor (Homo sapiens), Q9UM73 [L1196M]; settings: Compound concentration 1000.0 nM
[7] = biological target: 5'-AMP-activated protein kinase catalytic subunit alpha-2 (Homo sapiens) (UniProt P54646); settings: Compound concentration 1000.0 nM
[8] = biological target: Aurora kinase C (Homo sapiens) (UniProt Q9UQB9); settings: Compound concentration 1000.0 nM
[9] = biological target: Tyrosine-protein kinase receptor UFO (Homo sapiens) (UniProt P30530); settings: Compound concentration 1000.0 nM
[10] = biological target: Bone morphogenetic protein receptor type-2 (Homo sapiens) (UniProt Q13873); settings: Compound concentration 1000.0 nM
[11] = biological target: Calcium/calmodulin-dependent protein kinase type II subunit beta (Homo sapiens) (UniProt Q13554); settings: Compound concentration 1000.0 nM
[12] = biological target: Peripheral plasma membrane protein CASK (Homo sapiens) (UniProt O14936); settings: Compound concentration 1000.0 nM
Chain of Peripheral plasma membrane protein CASK (Homo sapiens) (O14936 whole entry): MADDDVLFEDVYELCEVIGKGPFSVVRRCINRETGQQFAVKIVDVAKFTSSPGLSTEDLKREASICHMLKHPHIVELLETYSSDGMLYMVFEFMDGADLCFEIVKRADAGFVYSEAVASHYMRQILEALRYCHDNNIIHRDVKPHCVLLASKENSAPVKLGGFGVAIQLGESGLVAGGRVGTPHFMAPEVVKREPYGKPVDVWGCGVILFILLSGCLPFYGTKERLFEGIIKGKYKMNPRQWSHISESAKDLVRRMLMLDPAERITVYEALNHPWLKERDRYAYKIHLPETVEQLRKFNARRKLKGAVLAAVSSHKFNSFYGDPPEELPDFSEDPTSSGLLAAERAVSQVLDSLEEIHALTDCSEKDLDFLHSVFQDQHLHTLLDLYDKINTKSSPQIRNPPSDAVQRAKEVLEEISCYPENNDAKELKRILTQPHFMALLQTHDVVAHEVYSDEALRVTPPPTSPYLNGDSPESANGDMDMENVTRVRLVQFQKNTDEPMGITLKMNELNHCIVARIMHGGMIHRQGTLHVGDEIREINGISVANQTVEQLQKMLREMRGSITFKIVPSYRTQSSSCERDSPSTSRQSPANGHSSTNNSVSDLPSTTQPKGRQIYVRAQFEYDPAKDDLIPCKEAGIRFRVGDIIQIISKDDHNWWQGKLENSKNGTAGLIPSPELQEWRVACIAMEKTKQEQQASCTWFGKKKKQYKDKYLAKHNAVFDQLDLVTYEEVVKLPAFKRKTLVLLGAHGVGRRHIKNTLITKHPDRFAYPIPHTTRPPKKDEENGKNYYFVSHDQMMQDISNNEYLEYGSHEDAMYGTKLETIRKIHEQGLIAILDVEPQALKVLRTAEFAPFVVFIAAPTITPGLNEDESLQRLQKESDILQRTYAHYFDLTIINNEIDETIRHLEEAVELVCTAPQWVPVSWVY

[13] = biological target: Cyclin-dependent kinase 2 (Homo sapiens) (UniProt P24941); settings: Compound concentration 1000.0 nM
[14] = biological target: Cyclin-dependent kinase 5 (Homo sapiens) (UniProt Q00535); settings: Compound concentration 1000.0 nM
Chain of Cyclin-dependent kinase 5 (Homo sapiens) (Q00535 whole entry, looked up): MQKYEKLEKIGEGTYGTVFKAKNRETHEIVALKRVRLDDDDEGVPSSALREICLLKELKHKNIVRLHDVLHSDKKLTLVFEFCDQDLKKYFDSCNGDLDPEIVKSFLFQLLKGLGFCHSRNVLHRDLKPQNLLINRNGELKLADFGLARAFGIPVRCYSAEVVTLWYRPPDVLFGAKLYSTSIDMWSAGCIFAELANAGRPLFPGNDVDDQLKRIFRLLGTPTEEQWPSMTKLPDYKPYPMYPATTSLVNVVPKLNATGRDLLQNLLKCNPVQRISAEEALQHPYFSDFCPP

[15] = biological target: Serine/threonine-protein kinase DCLK2 (Homo sapiens) (UniProt Q8N568); settings: Compound concentration 1000.0 nM
[16] = biological target: Epithelial discoidin domain-containing receptor 1 (Homo sapiens) (UniProt Q08345); settings: Compound concentration 1000.0 nM
[17] = biological target: Serine/threonine-protein kinase 17A (Homo sapiens) (UniProt Q9UEE5); settings: Compound concentration 1000.0 nM
Chain of Serine/threonine-protein kinase 17A (Homo sapiens) (Q9UEE5 whole entry): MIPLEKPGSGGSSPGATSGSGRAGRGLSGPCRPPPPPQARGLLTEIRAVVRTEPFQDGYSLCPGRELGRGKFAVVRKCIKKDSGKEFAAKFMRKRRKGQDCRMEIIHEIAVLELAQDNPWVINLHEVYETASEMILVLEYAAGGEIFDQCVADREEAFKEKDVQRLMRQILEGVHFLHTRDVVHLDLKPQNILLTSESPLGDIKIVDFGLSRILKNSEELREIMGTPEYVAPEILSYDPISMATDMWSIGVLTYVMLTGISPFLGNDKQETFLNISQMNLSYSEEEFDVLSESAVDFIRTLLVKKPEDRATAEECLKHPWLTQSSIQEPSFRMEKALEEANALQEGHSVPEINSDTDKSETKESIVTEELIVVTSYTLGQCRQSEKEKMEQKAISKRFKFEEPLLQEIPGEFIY

[18] = tested on: Epidermal growth factor receptor (Homo sapiens), P00533 [G719C]; settings: Compound concentration 1000.0 nM
[19] = tested on: Epidermal growth factor receptor (Homo sapiens), P00533 [UNDEFINED MUTATION]; settings: Compound concentration 1000.0 nM
[20] = biological target: Ephrin type-B receptor 1 (Homo sapiens) (UniProt P54762); settings: Compound concentration 1000.0 nM
[21] = tested on: Fibroblast growth factor receptor 3 (Homo sapiens), P22607 [G697C]; settings: Compound concentration 1000.0 nM
[22] = biological target: Fibroblast growth factor receptor 4 (Homo sapiens) (UniProt P22455); settings: Compound concentration 1000.0 nM
[23] = tested on: Receptor-type tyrosine-protein kinase FLT3 (Homo sapiens), P36888 [UNDEFINED MUTATION]; settings: Compound concentration 1000.0 nM
[24] = biological target: Vascular endothelial growth factor receptor 3 (Homo sapiens) (UniProt P35916); settings: Compound concentration 1000.0 nM
[25] = biological target: Tyrosine-protein kinase Fyn (Homo sapiens) (UniProt P06241); settings: Compound concentration 1000.0 nM
[26] = biological target: Homeodomain-interacting protein kinase 4 (Homo sapiens) (UniProt Q8NE63); settings: Compound concentration 1000.0 nM
[27] = biological target: Serine/threonine-protein kinase ICK (Homo sapiens) (UniProt Q9UPZ9); settings: Compound concentration 1000.0 nM
[28] = biological target: Mitogen-activated protein kinase 9 (Homo sapiens) (UniProt P45984); settings: Compound concentration 1000.0 nM
[29] = biological target: LIM domain kinase 1 (Homo sapiens) (UniProt P53667); settings: Compound concentration 1000.0 nM
[30] = biological target: MAP kinase-activated protein kinase 5 (Homo sapiens) (UniProt Q8IW41); settings: Compound concentration 1000.0 nM
Chain of MAP kinase-activated protein kinase 5 (Homo sapiens) (Q8IW41 whole entry): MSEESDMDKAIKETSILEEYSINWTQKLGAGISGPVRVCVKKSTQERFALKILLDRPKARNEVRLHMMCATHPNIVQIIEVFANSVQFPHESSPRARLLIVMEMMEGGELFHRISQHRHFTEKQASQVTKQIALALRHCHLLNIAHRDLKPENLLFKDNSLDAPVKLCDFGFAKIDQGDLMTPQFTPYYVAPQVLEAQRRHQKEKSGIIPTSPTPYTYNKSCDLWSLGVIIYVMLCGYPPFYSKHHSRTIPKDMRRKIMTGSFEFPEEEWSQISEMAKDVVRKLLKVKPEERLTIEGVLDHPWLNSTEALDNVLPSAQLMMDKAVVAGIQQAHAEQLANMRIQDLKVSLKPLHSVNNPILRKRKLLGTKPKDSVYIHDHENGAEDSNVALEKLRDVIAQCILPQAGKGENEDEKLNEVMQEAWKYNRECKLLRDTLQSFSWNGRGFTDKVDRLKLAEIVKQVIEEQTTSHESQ

[31] = biological target: Serine/threonine-protein kinase mTOR (Homo sapiens) (UniProt P42345); settings: Compound concentration 1000.0 nM
[32] = biological target: Serine/threonine-protein kinase PAK 1 (Homo sapiens) (UniProt Q13153); settings: Compound concentration 1000.0 nM
[33] = biological target: Serine/threonine-protein kinase PAK 2 (Homo sapiens) (UniProt Q13177); settings: Compound concentration 1000.0 nM
Chain of Serine/threonine-protein kinase PAK 2 (Homo sapiens) (Q13177 whole entry): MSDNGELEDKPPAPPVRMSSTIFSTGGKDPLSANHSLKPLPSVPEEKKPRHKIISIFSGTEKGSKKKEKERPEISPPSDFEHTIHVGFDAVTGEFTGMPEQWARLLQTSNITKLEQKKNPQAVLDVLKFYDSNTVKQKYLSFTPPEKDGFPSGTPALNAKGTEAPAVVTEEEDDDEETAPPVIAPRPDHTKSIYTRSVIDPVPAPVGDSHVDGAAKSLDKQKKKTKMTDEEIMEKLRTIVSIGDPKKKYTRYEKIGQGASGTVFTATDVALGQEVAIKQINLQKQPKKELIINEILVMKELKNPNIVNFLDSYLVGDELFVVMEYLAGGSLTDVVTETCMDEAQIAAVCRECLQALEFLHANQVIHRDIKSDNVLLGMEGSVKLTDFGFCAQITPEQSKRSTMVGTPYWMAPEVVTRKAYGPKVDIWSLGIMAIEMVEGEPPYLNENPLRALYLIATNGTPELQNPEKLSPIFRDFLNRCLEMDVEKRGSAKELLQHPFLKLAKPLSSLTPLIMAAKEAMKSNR

[34] = biological target: Serine/threonine-protein kinase PAK 6 (Homo sapiens) (UniProt Q9NQU5); settings: Compound concentration 1000.0 nM
[35] = biological target: Platelet-derived growth factor receptor beta (Homo sapiens) (UniProt P09619); settings: Compound concentration 1000.0 nM
Chain of Platelet-derived growth factor receptor beta (Homo sapiens) (P09619 whole entry): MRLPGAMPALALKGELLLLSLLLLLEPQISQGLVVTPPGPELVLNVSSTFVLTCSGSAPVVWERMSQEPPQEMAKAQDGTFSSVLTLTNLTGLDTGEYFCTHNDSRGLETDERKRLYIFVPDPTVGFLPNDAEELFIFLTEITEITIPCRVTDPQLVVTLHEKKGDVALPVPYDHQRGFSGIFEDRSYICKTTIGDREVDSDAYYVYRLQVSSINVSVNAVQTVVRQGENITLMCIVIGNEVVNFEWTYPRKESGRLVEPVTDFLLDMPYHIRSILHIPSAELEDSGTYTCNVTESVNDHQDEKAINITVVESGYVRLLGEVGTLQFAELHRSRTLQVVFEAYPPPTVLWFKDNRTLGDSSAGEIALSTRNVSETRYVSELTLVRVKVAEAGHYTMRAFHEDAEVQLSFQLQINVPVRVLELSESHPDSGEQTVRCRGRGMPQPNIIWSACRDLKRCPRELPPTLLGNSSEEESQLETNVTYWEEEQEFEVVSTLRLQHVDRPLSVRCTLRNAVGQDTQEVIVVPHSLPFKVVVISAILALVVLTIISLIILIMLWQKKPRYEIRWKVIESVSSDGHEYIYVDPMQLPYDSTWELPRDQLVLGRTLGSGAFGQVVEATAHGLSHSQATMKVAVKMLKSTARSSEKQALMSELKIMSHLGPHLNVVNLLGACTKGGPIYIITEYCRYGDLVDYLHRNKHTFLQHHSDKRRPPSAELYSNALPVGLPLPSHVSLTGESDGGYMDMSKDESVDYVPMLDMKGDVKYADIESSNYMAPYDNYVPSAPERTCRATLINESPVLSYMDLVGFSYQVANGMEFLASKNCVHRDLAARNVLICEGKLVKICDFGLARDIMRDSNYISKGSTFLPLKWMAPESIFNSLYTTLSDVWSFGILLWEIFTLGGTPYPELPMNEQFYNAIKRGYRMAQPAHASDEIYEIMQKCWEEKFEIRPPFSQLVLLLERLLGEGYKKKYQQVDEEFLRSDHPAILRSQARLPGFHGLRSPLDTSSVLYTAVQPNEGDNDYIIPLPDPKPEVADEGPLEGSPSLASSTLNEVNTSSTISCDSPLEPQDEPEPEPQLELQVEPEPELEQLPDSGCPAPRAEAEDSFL

[36] = biological target: Protein kinase C epsilon type (Homo sapiens) (UniProt Q02156); settings: Compound concentration 1000.0 nM
Chain of Protein kinase C epsilon type (Homo sapiens) (Q02156 whole entry): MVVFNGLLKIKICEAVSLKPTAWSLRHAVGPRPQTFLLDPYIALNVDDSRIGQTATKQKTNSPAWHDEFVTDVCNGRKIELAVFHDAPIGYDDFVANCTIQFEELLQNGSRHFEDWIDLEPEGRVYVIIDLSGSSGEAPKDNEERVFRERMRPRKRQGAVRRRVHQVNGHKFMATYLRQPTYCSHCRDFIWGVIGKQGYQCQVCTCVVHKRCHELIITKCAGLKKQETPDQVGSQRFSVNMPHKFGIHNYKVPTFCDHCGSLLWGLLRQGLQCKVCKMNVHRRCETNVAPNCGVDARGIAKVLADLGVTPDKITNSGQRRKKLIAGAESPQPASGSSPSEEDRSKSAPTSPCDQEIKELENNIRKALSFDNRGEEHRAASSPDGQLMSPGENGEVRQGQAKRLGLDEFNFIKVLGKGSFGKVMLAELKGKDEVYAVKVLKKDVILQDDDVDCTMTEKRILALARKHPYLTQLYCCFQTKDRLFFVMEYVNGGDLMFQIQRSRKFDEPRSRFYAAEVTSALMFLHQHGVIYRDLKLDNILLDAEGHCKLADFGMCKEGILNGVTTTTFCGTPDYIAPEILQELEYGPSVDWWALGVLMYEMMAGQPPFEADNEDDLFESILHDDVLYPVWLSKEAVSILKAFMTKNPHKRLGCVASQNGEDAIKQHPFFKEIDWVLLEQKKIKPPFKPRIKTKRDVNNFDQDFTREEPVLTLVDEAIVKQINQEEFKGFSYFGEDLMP

[37] = biological target: cGMP-dependent protein kinase 1 (Homo sapiens) (UniProt Q13976); settings: Compound concentration 1000.0 nM
[38] = biological target: Proto-oncogene tyrosine-protein kinase receptor Ret (Homo sapiens) (UniProt P07949); settings: Compound concentration 1000.0 nM
[39] = tested on: Proto-oncogene tyrosine-protein kinase receptor Ret (Homo sapiens), P07949 [M918T]; settings: Compound concentration 1000.0 nM
[40] = tested on: Proto-oncogene tyrosine-protein kinase receptor Ret (Homo sapiens), P07949 [V804M]; settings: Compound concentration 1000.0 nM
[41] = biological target: Ribosomal protein S6 kinase alpha-4 (Homo sapiens) (UniProt O75676); settings: Compound concentration 1000.0 nM
[42] = biological target: Serine/threonine-protein kinase SIK1 (Homo sapiens) (UniProt P57059); settings: Compound concentration 1000.0 nM
[43] = biological target: Proto-oncogene tyrosine-protein kinase Src (Homo sapiens) (UniProt P12931); settings: Compound concentration 1000.0 nM
[44] = biological target: Tyrosine-protein kinase Tec (Homo sapiens) (UniProt P42680); settings: Compound concentration 1000.0 nM
[45] = biological target: Serine/threonine-protein kinase ULK1 (Homo sapiens) (UniProt O75385); settings: Compound concentration 1000.0 nM
[46] = biological target: Serine/threonine-protein kinase ULK3 (Homo sapiens) (UniProt Q6PHR2); settings: Compound concentration 1000.0 nM

COc1ccc2c(O[C@@H]3C[C@H]4C(=O)N[C@]5(C(=O)O)CC5/C=C\CCCCC[C@H](NC(=O)OC5CCCC5)C(=O)N4C3)cc(-c3csc(NC(=O)C(C)C)n3)nc2c1C (some centres not stated) [BI 1230]
active: IC50 [1] 6.7 nM
inactive: residual activity [2] 92% | residual activity [3] 93% | residual activity [4] 72% | residual activity [5] 100% | residual activity [6] 97% | residual activity [7] 87% | residual activity [8] 96% | residual activity [9] 97% | residual activity [10] 84% | residual activity [11] 100% | residual activity [12] 97% | residual activity [13] 99% | residual activity [14] 97% | residual activity [15] 95% | residual activity [16] 100% | residual activity [17] 99% | residual activity [18] 76% | residual activity [19] 75% | residual activity [20] 100% | residual activity [21] 88% | residual activity [22] 100% | residual activity [23] 97% | residual activity [24] 100% | residual activity [25] 100% | residual activity [26] 99% | residual activity [27] 68% | residual activity [28] 71% | residual activity [29] 100% | residual activity [30] 88% | residual activity [31] 100% | residual activity [32] 100% | residual activity [33] 91% | residual activity [34] 100% | residual activity [35] 94% | residual activity [36] 58% | residual activity [37] 100% | residual activity [38] 91% | residual activity [39] 97% | residual activity [40] 96% | residual activity [41] 96% | residual activity [42] 100% | residual activity [43] 100% | residual activity [44] 100% | residual activity [45] 93% | residual activity [46] 93%

O=C(N[C@H]1CCCCC/C=C\C2C[C@@]2(C(=O)O)NC(=O)[C@@H]2C[C@@H](Oc3ccncc3)CN2C1=O)OC1CCCC1 (some centres not stated) [BI 1675]
4870 nM (not active): IC50 [1]
active: residual activity [19] 49%
inactive: residual activity [2] 100% | residual activity [3] 97% | residual activity [4] 96% | residual activity [5] 100% | residual activity [6] 100% | residual activity [7] 71% | residual activity [8] 92% | residual activity [9] 95% | residual activity [10] 100% | residual activity [11] 99% | residual activity [12] 89% | residual activity [13] 87% | residual activity [14] 77% | residual activity [15] 93% | residual activity [16] 100% | residual activity [17] 100% | residual activity [18] 59% | residual activity [20] 100% | residual activity [21] 100% | residual activity [22] 100% | residual activity [23] 100% | residual activity [24] 93% | residual activity [25] 100% | residual activity [26] 100% | residual activity [27] 85% | residual activity [28] 94% | residual activity [29] 92% | residual activity [30] 96% | residual activity [31] 100% | residual activity [32] 89% | residual activity [33] 79% | residual activity [34] 100% | residual activity [35] 87% | residual activity [36] 100% | residual activity [37] 100% | residual activity [38] 94% | residual activity [39] 96% | residual activity [40] 100% | residual activity [41] 100% | residual activity [42] 83% | residual activity [43] 100% | residual activity [44] 100% | residual activity [45] 100% | residual activity [46] 82%
